Test results from the supplement of paper PMC10307832.

Columns and labels:
Test in all cases: relative viability (nuclei count vs DMSO), 5 days (fraction); higher = more cells survive
201T = system: 201T
Summary of the method: (§1)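 For relative viability, nuclei counts in treated wells were divided by those in vehicle wells. Lung cancer cell lines had been pin-tool dosed in 1536-well plates the day after seeding and cultured for 5 days, then fixed and stained in one step (final 0.05% Triton X-100, 1% formaldehyde, 1 ug/ml Hoechst) and imaged at 4×. Doses were one drug alone or a fixed anchor-drug dose plus five library-drug doses (not always all listed) in √10 steps, and values are duplicate-plate medians.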

ABC-1 = system: ABC-1
Summary of the method: as §1

EKVX = system: EKVX
Summary of the method: as §1

EPLC-272H = system: EPLC-272H
Summary of the method: as §1

HCC-44 = system: HCC-44
Summary of the method: as §1

LOU-NH91 = system: LOU-NH91
Summary of the method: as §1

NCI-H1734 = system: NCI-H1734
Summary of the method: as §1

NCI-H1793 = system: NCI-H1793
Summary of the method: as §1

NCI-H1993 = system: NCI-H1993
Summary of the method: as §1

NCI-H2085 = system: NCI-H2085
Summary of the method: as §1

NCI-H2170 = system: NCI-H2170
Summary of the method: as §1

NCI-H2347 = system: NCI-H2347
Summary of the method: as §1

NCI-H2405 = system: NCI-H2405
Summary of the method: as §1

NCI-H3122 = system: NCI-H3122
Summary of the method: as §1

NCI-H441 = system: NCI-H441
Summary of the method: as §1

NCI-H647 = system: NCI-H647
Summary of the method: as §1

PC-14 = system: PC-14
Summary of the method: as §1

RERF-LC-KJ = system: RERF-LC-KJ
Summary of the method: as §1

SW 900 = system: SW 900
Summary of the method: as §1

COR-L23 = system: COR-L23
Summary of the method: as §1

NCI-H1650 = system: NCI-H1650
Summary of the method: as §1

NCI-H2023 = system: NCI-H2023
Summary of the method: as §1

NCI-H520 = system: NCI-H520
Summary of the method: as §1

Compound: C[C@@H]1CN(CC(=O)Nc2ccc3c(c2)Cc2cccc(-c4cc(=O)cc(N5CCOCC5)o4)c2S3)C[C@H](C)O1 + NC(=O)Nc1cc(-c2cccc(F)c2)sc1C(=O)N[C@H]1CCCNC1 [AZD7762] (partner 0.2 µM)
- relative viability (201T; first compound 0.04 µM): 0.5
- relative viability (201T; first compound 0.1265 µM): 0.544
- relative viability (201T; first compound 0.4 µM): 0.586
- relative viability (201T; first compound 4 µM): 0.478
- relative viability (ABC-1; first compound 0.1265 µM): 0.742
- relative viability (ABC-1; first compound 0.4 µM): 1.52
- relative viability (ABC-1; first compound 4 µM): 0.971
- relative viability (EKVX; first compound 0.04 µM): 0.651
- relative viability (EKVX; first compound 0.1265 µM): 0.751
- relative viability (EKVX; first compound 0.4 µM): 0.713
- relative viability (EKVX; first compound 4 µM): 0.562
- relative viability (EPLC-272H; first compound 0.04 µM): 0.237
- relative viability (EPLC-272H; first compound 0.1265 µM): 0.348
- relative viability (EPLC-272H; first compound 0.4 µM): 0.226
- relative viability (EPLC-272H; first compound 4 µM): 0.321
- relative viability (HCC-44; first compound 0.04 µM): 0.945
- relative viability (HCC-44; first compound 0.1265 µM): 1.01
- relative viability (HCC-44; first compound 0.4 µM): 1
- relative viability (HCC-44; first compound 4 µM): 0.913
- relative viability (LOU-NH91; first compound 0.04 µM): 0.639
- relative viability (LOU-NH91; first compound 0.1265 µM): 0.775
- relative viability (LOU-NH91; first compound 0.4 µM): 0.65
- relative viability (LOU-NH91; first compound 4 µM): 0.706
- relative viability (NCI-H1734; first compound 0.04 µM): 0.569
- relative viability (NCI-H1734; first compound 0.1265 µM): 0.684
- relative viability (NCI-H1734; first compound 0.4 µM): 0.643
- relative viability (NCI-H1734; first compound 4 µM): 0.634
- relative viability (NCI-H1793; first compound 0.04 µM): 0.588
- relative viability (NCI-H1793; first compound 0.1265 µM): 0.514
- relative viability (NCI-H1793; first compound 0.4 µM): 0.404
- relative viability (NCI-H1793; first compound 4 µM): 0.25
- relative viability (NCI-H1993; first compound 0.04 µM): 0.752
- relative viability (NCI-H1993; first compound 0.1265 µM): 0.737
- relative viability (NCI-H1993; first compound 0.4 µM): 0.611
- relative viability (NCI-H1993; first compound 4 µM): 0.55
- relative viability (NCI-H2085; first compound 0.04 µM): 0.959
- relative viability (NCI-H2085; first compound 0.1265 µM): 1.06
- relative viability (NCI-H2085; first compound 0.4 µM): 0.997
- relative viability (NCI-H2085; first compound 4 µM): 0.796
- relative viability (NCI-H2170; first compound 0.04 µM): 0.95
- relative viability (NCI-H2170; first compound 0.1265 µM): 0.807
- relative viability (NCI-H2170; first compound 0.4 µM): 0.812
- relative viability (NCI-H2170; first compound 4 µM): 0.633
- relative viability (NCI-H2347; first compound 0.04 µM): 0.811
- relative viability (NCI-H2347; first compound 0.1265 µM): 0.913
- relative viability (NCI-H2347; first compound 0.4 µM): 0.625
- relative viability (NCI-H2347; first compound 4 µM): 0.611
- relative viability (NCI-H2405; first compound 0.04 µM): 0.703
- relative viability (NCI-H2405; first compound 0.1265 µM): 0.795
- relative viability (NCI-H2405; first compound 0.4 µM): 0.792
- relative viability (NCI-H2405; first compound 4 µM): 0.676
- relative viability (NCI-H3122; first compound 0.04 µM): 1.01
- relative viability (NCI-H3122; first compound 0.1265 µM): 0.922
- relative viability (NCI-H3122; first compound 0.4 µM): 1.05
- relative viability (NCI-H3122; first compound 4 µM): 0.733
- relative viability (NCI-H441; first compound 0.04 µM): 1.28
- relative viability (NCI-H441; first compound 0.1265 µM): 1.16
- relative viability (NCI-H441; first compound 0.4 µM): 1.02
- relative viability (NCI-H441; first compound 4 µM): 1.01
- relative viability (NCI-H647; first compound 0.04 µM): 0.346
- relative viability (NCI-H647; first compound 0.1265 µM): 0.46
- relative viability (NCI-H647; first compound 0.4 µM): 0.515
- relative viability (NCI-H647; first compound 4 µM): 0.309
- relative viability (PC-14; first compound 0.04 µM): 0.289
- relative viability (PC-14; first compound 0.1265 µM): 0.308
- relative viability (PC-14; first compound 0.4 µM): 0.32
- relative viability (PC-14; first compound 4 µM): 0.276
- relative viability (RERF-LC-KJ; first compound 0.04 µM): 0.941
- relative viability (RERF-LC-KJ; first compound 0.1265 µM): 0.955
- relative viability (RERF-LC-KJ; first compound 4 µM): 0.929
- relative viability (SW 900; first compound 0.04 µM): 0.629
- relative viability (SW 900; first compound 0.1265 µM): 0.669
- relative viability (SW 900; first compound 0.4 µM): 0.506
- relative viability (SW 900; first compound 4 µM): 0.281

Compound: CC(C)Oc1cc(Nc2nc(N[C@@H](C)c3ccc(F)cn3)ncc2Cl)n[nH]1 [AZ23] + CC(=O)Nc1cccc(-n2c(=O)n(C3CC3)c(=O)c3c(Nc4ccc(I)cc4F)n(C)c(=O)c(C)c32)c1 [Trametinib] (partner 0.02 µM)
- relative viability (201T; first compound 0.01 µM): 0.716
- relative viability (201T; first compound 0.03162 µM): 0.731
- relative viability (201T; first compound 0.3162 µM): 0.649
- relative viability (COR-L23; first compound 0.01 µM): 0.446
- relative viability (COR-L23; first compound 0.03162 µM): 0.659
- relative viability (COR-L23; first compound 0.3162 µM): 0.612
- relative viability (EKVX; first compound 0.01 µM): 0.346
- relative viability (EKVX; first compound 0.03162 µM): 0.351
- relative viability (EKVX; first compound 0.3162 µM): 0.332
- relative viability (EPLC-272H; first compound 0.03162 µM): 0.267
- relative viability (EPLC-272H; first compound 0.3162 µM): 0.274
- relative viability (HCC-44; first compound 0.01 µM): 1.1
- relative viability (HCC-44; first compound 0.03162 µM): 0.92
- relative viability (HCC-44; first compound 0.3162 µM): 1.05
- relative viability (LOU-NH91; first compound 0.01 µM): 0.784
- relative viability (LOU-NH91; first compound 0.03162 µM): 0.823
- relative viability (LOU-NH91; first compound 0.3162 µM): 0.784
- relative viability (NCI-H1650; first compound 0.01 µM): 0.546
- relative viability (NCI-H1650; first compound 0.03162 µM): 0.589
- relative viability (NCI-H1650; first compound 0.3162 µM): 0.659
- relative viability (NCI-H1734; first compound 0.01 µM): 0.733
- relative viability (NCI-H1734; first compound 0.03162 µM): 0.726
- relative viability (NCI-H1734; first compound 0.3162 µM): 0.436
- relative viability (NCI-H1793; first compound 0.01 µM): 0.45
- relative viability (NCI-H1793; first compound 0.03162 µM): 0.407
- relative viability (NCI-H1793; first compound 0.3162 µM): 0.347
- relative viability (NCI-H1993; first compound 0.01 µM): 0.551
- relative viability (NCI-H1993; first compound 0.03162 µM): 0.493
- relative viability (NCI-H1993; first compound 0.3162 µM): 0.449
- relative viability (NCI-H2023; first compound 0.03162 µM): 0.602
- relative viability (NCI-H2023; first compound 0.3162 µM): 0.48
- relative viability (NCI-H2085; first compound 0.01 µM): 0.477
- relative viability (NCI-H2085; first compound 0.03162 µM): 0.746
- relative viability (NCI-H2085; first compound 0.3162 µM): 0.538
- relative viability (NCI-H2170; first compound 0.01 µM): 1.14
- relative viability (NCI-H2170; first compound 0.03162 µM): 0.953
- relative viability (NCI-H2170; first compound 0.3162 µM): 0.994
- relative viability (NCI-H2347; first compound 0.01 µM): 0.272
- relative viability (NCI-H2347; first compound 0.03162 µM): 0.272
- relative viability (NCI-H2347; first compound 0.3162 µM): 0.232
- relative viability (NCI-H2405; first compound 0.01 µM): 0.572
- relative viability (NCI-H2405; first compound 0.03162 µM): 0.673
- relative viability (NCI-H2405; first compound 0.3162 µM): 0.599
- relative viability (NCI-H3122; first compound 0.01 µM): 0.268
- relative viability (NCI-H3122; first compound 0.03162 µM): 0.243
- relative viability (NCI-H3122; first compound 0.3162 µM): 0.22
- relative viability (NCI-H441; first compound 0.01 µM): 0.504
- relative viability (NCI-H441; first compound 0.03162 µM): 0.433
- relative viability (NCI-H441; first compound 0.3162 µM): 0.509
- relative viability (NCI-H520; first compound 0.01 µM): 0.853
- relative viability (NCI-H520; first compound 0.03162 µM): 0.707
- relative viability (NCI-H520; first compound 0.3162 µM): 0.587
- relative viability (NCI-H647; first compound 0.01 µM): 0.61
- relative viability (NCI-H647; first compound 0.03162 µM): 0.58
- relative viability (NCI-H647; first compound 0.3162 µM): 0.509
- relative viability (PC-14; first compound 0.01 µM): 0.599
- relative viability (PC-14; first compound 0.03162 µM): 0.783
- relative viability (PC-14; first compound 0.3162 µM): 0.749
- relative viability (RERF-LC-KJ; first compound 0.01 µM): 0.837
- relative viability (RERF-LC-KJ; first compound 0.03162 µM): 0.883
- relative viability (RERF-LC-KJ; first compound 0.3162 µM): 0.862
- relative viability (SW 900; first compound 0.01 µM): 1.06
- relative viability (SW 900; first compound 0.3162 µM): 0.873
